Laboratory results published in patent US7067619B2, “Integrin-binding peptides” (La Jolla Cancer Research Foundation, priority 1993, dated 2006).
Read-outs that look alike come from different tables or passages of the source. Bridge positions count the residues as written; N and C are the ends. Ends that are not written are not given here.

Experiments:
α5β1 integrin [1] = experiment: Inhibition of α5β1-mediated cell attachment to fibronectin; assay type: cell-based, human
Excerpt: Cell lines expressing different integrins were used to examine peptide inhibition of integrin function. A human melanoma cell line, C8161, a fibroblast cell line, WI-38, and an osteosarcoma cell line, MG-63 (described by Seftor et al., Canc. Res., 53:3411–3415 (1993); Vogel et al., J. Biol. Chem., 265:5934–5937 (1990); and Pytela et al. (1985), supra, respectively, each of which is incorporated herein by reference) attach to fibronectin through α5β1 integrin, as does B2/α27, a CHO cell line transfected with human α5. B2/C1, the control parental CHO line (Bauer et al., J. Cell. Biol. 116:477–487 (1992), which is incorporated herein by reference), attaches via […]. CHO cells C11 and NIH 3T3 cells express the endogenous Chinese hamster and mouse α5β1 integrins, respectively. The human melanoma cells, A375-M, attach to fibronectin through both α5β1 and α4β1 integrins (Mould et al., J. Biol. Chem. 265:4020–4024 (1990), which is incorporated herein by reference). CHO cell line B2/v7 express the αvβ1 integrin (Zhang et al., J. Cell. Biol. 122:235–242 (1993), which is incorporated herein by reference). The vitronectin-binding integrins […] and αvβ3 were assayed using the cell line HT-29 and IMR-90, respectively (Koivunen et al., J. Biol. Chem. 268: 20205–20210 (1993)).
(§1) Cell lines expressing fibronectin-binding integrins were used to determine peptide activities against these integrins in the cell attachment assay described by Ruoslahti et al., Meth. Enzymol., 144:803–831 (1982), which is incorporated herein by reference. Human plasma fibronectin was iodinated as described by Morla and Ruoslahti, J. Cell Biol., 118:421–429 (1992), which is incorporated herein by reference. Vitronectin was obtained from Telios Pharmaceuticals (San Diego, Calif.). […] Peptide was coated on plastic by incubating at 37° C. for 2 hours in phosphate buffered saline containing 0.25% glutaraldehyde to crosslink the peptide. Free binding sites on the plastic were blocked using BSA. Approximately 1×10^5 cells per well were allowed to attach for 1 hour in the presence or absence of competing peptides. Bound cells were quantitated by staining with 0.1% amido black.
Inhibition of cell attachment mediated by either fibronectin- or vitronectin-binding integrins was performed to determine peptide specificity in a biologically relevant system. The assays and cell lines were performed as described above. FIGS. 5 and 6 show the results of cell attachment mediated by the fibronectin binding integrins α5β1 and αvβ1.

α5β1 integrin [2] = target: T1, α5β1 integrin (Homo sapiens, UniProt P05556+P08648); experiment: Inhibition of peptide-displaying phage binding to α5β1 integrin by synthetic peptides
T1 construct: The αvβ3, αvβ5 and α5β1 integrins were isolated from human placental extracts; from tissue; host or cells: human placenta
Method: Phage clone containing the RGDGW [SEQ ID NO:9] sequence was incubated for 1 hour in integrin-coated microliter wells in the presence of the competing peptides. After extensive washing, the phage remained bound were determined as described in Example XII.
(§2) In addition, most of the phage-binding activity in the αvβ3 preparation was captured into microliter wells coated with antibodies against the αv or β3 subunits as described previously (Koivunen et al., J. Biol. Chem., 268:20205–10 (1993). The αIIbβ3 integrin was isolated from outdated platelets (Pytela et al., Science, 231:1559–1562 (1986)).
(§3) Binding of individual cloned phage to integrins was studied in microliter wells as described in Koivunen et al., J. Cell. Biol., 124:373–380 (1994). Phage binding to α5β1 and αvβ3 were assayed in TBS buffer containing 1% BSA and 1 mM MnCl2 and binding to αvβ5 in the presence of 1 mM CaCl2. Phage that were bound were determined by their ability to infect F-pilus positive K91kan bacteria. Bacteria were grown overnight in microliter wells in the presence of tetracycline and the absorbance indicative of bacterial growth was read at 600 nm with an ELISA plate reader.
Relative affinities of the […] [SEQ ID NO:12] and CRGDC [SEQ ID NO:37] peptides were determined by inhibition of binding of peptide-displaying phage to α5β1 integrin. Peptide-displaying phage were constructed as described by Scott and Smith, Science 249:386–390 (1990) and Example IV. Microwell plates were coated with various integrins as described by Koivunen et al., J. Biol. Chem., 268:20205–10 (1993) and Example II.
The binding of […] [SEQ ID NO:12]-containing peptide ligands to α5β1 integrin was performed as follows. RRETAWA [SEQ ID NO:8]-displaying phage were incubated for 1 hour in the presence of various concentrations of the cyclic peptides containing […] [SEQ ID NO:12] and containing CRGDC [SEQ ID NO:37] in microliter wells coated with the α5β1 integrin. Binding was quantitated by adding K91kan bacteria directly to the wells and growing the bacteria overnight at room temperature (Smith and Scott, Meth. Enzymol., 217:228–257 (1993), which is incorporated herein by reference).
Additional peptide motifs were tested as follows. ELRGDGW-displaying [SEQ ID NO:4] phage were added together with various concentrations of the cyclic peptides containing […] [SEQ ID NO:12] and containing CRGDC [SEQ ID NO:37] into microliter wells coated with the α5β1 integrin, incubated for 1 hour at room temperature and binding to wells was quantitated.

α5β1 = α5β1 (Homo sapiens, UniProt P05556+P08648); conditions: Nowlin et al., J. Biol. Chem. 268:20352–59 (1993); cited from earlier work
α4β1 = α4β1 (Homo sapiens, UniProt P05556+P13612); conditions: Nowlin et al., J. Biol. Chem. 268:20352–59 (1993); cited from earlier work
α5β1 integrin [3] = experiment: Cell attachment to immobilized […] peptide (B2/α27 vs B2/Cl cells); assay type: cell-based, human; conditions: FIG. 8
Excerpt: as §1
In addition to the inhibition of cell attachment to natural ligands, attachment and inhibition assays were performed using the […] [SEQ ID NO:6] peptide as substrate. The microliter well were coated with […] [SEQ ID NO:6] using glutaraldehyde as described above. Briefly, peptide was coated on plastic by incubating at 37° C. for 2 hours in phosphate buffered saline containing 0.25% glutaraldehyde to crosslink the peptide and free binding sites on the plastic were blocked using BSA. The wells were then saturated with BSA followed by the addition of 50,000 B2/α27 or B2/Cl cells in the presence or absence of the indicated inhibitor. […] Bound cells were quantitated by staining with 0.1% amido black.

α5β1 integrin [4] = target: T1, α5β1 integrin; experiment: Panning and binding of peptide-displaying phage on α5β1 integrin; conditions: phage-displayed sequence
Excerpt: as §2
Peptide libraries were constructed in fuse 5 vector (Scott and Smith, Science 249:386–390 (1990)) as described previously (Koivunen et al., J. Cell Biol., 124:373–380 (1994). The CX5C, CX6C, CX7C and CX9 [SEQ ID NOs:39–42, respectively] libraries were prepared using synthetic oligonucleotides containing core sequences TGT(NNK)5TGT, TGT(NNK)6TGT, TGT(NNK)7TGT and TGT(NNK)9 [SEQ ID NOS:43–46, respectively] (N=equal molar mixture of A, C, G, T; K=G or T), respectively. The oligonucleotides were made double-stranded by PCR amplification with 5 cycles, purified and ligated to the N-terminus of pIII gene of fuse 5 vector. The CX5C, CX6C, CX7C and CX9 [SEQ ID NOS:39–42, respectively] vectors were transfected into MC1061 cells using 16, 60, 263 and 250 electroporations, respectively. Bacteria were cultured for 24 hours in the presence of 20 μg/ml of tetracycline, and phage were collected from the supernatant by precipitation twice with polyethylene glycol. The phage pellets were dissolved at approximately 10^13 transducing units (TU)/ml in TBS buffer containing 0.02% NaN3 and stored at 4° C. The yields of the CX5C, CX6C, CX7C and CX9 [SEQ ID NOS:39–42, respectively] primary libraries were 3.5×10^8, 1.1×10^9, 4.5×10^5 and 3.5×10^8 clones, respectively. […]
as §3, with “Biol., 124:373–380 (1994). Phage binding to α5β1 and αvβ3 were assayed in TBS buffer containing 1% BSA and 1 mM MnCl2 and binding to αvβ5 in the presence of 1 mM CaCl2.” left out

αvβ3 integrin = αvβ3 integrin (Homo sapiens, UniProt P05106+P06756); experiment: Inhibition of peptide-displaying phage binding to αvβ3 integrin by synthetic peptides; design: The αvβ3, αvβ5 and α5β1 integrins were isolated from human placental extracts; from tissue; host or cells: human placenta; conditions: CRGDCL-displaying phage, αvβ3-coated wells; FIG. 3 (result sentence prints α5β1)
Excerpt: as §2, §3
The ability of […] [SEQ ID NO:12] and CRGDC [SEQ ID NO:37] containing peptides to inhibit binding of CRGDCL-displaying [SEQ ID NO:7] phage to the microwells coated with αvβ3 integrin also was examined. CRGDCL-displaying [SEQ ID NO:7] phage were added to a well and either cyclic […] [SEQ ID NO:6] or cyclic […] [SEQ ID NO:5] was added to compete for binding. Binding was quantitated as described above.

T1 sequence (P08648 42-894 limits assumed): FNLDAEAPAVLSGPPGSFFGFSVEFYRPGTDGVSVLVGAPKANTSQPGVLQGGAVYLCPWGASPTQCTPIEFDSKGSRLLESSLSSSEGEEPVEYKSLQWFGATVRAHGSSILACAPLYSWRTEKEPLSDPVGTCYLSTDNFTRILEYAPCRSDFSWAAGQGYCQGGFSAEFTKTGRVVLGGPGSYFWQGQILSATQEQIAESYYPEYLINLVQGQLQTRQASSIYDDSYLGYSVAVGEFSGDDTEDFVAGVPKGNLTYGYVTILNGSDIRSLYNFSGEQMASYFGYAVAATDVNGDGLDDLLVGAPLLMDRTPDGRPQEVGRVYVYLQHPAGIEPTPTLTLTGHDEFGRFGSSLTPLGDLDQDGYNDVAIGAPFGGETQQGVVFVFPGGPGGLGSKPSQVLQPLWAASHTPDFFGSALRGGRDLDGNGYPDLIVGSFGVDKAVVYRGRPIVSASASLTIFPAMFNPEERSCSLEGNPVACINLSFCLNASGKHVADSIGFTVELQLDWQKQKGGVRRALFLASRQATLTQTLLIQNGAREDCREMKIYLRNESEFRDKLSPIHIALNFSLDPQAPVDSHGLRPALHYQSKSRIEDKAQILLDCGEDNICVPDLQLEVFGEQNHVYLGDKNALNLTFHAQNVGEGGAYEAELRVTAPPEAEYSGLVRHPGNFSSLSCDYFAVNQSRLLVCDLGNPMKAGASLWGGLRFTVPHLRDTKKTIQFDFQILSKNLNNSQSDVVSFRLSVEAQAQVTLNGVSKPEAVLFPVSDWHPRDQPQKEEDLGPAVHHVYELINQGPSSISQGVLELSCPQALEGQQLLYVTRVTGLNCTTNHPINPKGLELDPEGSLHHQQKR
T1 sequence (P08648 895-1049 partner limits assumed): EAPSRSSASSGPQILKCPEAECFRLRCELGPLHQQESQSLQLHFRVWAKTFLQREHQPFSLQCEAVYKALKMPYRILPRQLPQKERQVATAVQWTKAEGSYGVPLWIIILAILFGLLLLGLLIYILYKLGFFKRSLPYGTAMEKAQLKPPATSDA
T1 sequence (P05556 21-798): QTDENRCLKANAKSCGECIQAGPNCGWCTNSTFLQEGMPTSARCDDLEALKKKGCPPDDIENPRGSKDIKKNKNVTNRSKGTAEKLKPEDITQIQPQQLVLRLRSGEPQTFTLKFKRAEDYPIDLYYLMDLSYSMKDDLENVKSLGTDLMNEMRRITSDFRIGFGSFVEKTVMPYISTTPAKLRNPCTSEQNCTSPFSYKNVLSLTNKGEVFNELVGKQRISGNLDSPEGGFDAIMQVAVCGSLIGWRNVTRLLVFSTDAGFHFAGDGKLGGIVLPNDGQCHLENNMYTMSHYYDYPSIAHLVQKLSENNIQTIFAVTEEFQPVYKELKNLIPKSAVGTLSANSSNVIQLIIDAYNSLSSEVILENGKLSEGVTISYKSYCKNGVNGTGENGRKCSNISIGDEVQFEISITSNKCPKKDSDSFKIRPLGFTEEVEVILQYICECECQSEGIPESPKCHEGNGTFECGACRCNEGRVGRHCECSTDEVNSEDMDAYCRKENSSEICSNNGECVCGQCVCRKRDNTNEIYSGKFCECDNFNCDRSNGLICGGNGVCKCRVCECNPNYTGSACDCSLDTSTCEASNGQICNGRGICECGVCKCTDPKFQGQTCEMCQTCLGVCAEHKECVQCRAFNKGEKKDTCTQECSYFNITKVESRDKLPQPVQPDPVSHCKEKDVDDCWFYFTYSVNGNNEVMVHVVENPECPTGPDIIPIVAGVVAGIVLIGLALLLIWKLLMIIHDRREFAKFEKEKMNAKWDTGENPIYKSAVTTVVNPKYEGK
α4β1, sequence (P13612 34-1032): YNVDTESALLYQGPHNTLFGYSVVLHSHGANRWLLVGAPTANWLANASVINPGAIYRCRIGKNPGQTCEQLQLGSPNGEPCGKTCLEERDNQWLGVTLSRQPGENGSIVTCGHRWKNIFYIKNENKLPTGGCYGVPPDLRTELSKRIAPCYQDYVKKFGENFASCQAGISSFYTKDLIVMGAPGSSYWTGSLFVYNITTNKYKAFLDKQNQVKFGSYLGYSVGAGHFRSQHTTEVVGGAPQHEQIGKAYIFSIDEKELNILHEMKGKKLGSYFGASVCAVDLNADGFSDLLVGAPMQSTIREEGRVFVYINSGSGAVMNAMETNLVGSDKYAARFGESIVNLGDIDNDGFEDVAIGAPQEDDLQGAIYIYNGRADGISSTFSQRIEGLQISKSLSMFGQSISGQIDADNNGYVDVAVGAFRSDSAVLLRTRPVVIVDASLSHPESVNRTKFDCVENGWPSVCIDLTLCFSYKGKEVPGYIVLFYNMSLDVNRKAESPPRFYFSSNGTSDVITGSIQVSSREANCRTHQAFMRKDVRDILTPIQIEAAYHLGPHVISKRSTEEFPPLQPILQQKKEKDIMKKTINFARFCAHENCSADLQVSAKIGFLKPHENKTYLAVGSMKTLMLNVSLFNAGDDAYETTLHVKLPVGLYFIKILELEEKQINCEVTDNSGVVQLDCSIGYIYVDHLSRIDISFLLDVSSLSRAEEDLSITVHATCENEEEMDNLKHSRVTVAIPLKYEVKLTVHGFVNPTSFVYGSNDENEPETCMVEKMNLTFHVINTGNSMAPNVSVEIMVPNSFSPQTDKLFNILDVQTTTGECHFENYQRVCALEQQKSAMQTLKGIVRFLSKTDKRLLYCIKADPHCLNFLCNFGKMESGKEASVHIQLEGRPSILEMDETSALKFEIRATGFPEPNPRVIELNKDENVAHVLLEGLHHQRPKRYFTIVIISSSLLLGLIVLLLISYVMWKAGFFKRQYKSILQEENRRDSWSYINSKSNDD
α4β1, sequence (P05556 21-798): as the sequence (P05556 21-798) above
α5β1, sequence (P08648 42-894 limits assumed): as the sequence (P08648 42-894 limits assumed) above
α5β1, sequence (P08648 895-1049 partner limits assumed): as the sequence (P08648 895-1049 partner limits assumed) above
α5β1, sequence (P05556 21-798): as the sequence (P05556 21-798) above
αvβ3 integrin, sequence (P06756 31-889 limits assumed): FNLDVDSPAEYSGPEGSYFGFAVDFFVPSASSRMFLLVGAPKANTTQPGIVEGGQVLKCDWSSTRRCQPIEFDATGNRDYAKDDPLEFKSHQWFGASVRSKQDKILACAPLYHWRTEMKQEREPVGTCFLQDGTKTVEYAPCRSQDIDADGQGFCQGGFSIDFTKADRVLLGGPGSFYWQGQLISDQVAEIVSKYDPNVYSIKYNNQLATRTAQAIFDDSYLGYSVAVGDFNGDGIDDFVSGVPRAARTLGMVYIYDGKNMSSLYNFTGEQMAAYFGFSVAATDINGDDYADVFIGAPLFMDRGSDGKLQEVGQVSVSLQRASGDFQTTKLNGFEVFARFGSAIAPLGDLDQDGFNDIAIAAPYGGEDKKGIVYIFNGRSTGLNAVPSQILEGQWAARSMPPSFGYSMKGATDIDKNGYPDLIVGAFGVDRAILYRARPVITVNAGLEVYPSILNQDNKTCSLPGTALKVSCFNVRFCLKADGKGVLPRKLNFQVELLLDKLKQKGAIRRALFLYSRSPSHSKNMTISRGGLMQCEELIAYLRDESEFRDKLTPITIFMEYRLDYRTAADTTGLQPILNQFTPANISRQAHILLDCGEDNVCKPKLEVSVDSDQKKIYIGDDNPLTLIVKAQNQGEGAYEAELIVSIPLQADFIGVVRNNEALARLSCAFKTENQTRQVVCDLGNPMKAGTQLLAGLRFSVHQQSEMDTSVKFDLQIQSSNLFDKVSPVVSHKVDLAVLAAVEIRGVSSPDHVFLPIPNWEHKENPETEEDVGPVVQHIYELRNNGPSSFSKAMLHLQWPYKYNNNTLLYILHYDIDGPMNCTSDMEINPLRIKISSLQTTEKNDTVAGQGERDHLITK
αvβ3 integrin, sequence (P06756 891-1048 partner limits assumed): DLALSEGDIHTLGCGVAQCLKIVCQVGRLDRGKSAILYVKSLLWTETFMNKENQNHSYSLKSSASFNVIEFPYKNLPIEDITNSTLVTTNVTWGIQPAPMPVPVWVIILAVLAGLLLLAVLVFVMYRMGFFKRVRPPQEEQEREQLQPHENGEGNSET
αvβ3 integrin, sequence (P05106 27-788): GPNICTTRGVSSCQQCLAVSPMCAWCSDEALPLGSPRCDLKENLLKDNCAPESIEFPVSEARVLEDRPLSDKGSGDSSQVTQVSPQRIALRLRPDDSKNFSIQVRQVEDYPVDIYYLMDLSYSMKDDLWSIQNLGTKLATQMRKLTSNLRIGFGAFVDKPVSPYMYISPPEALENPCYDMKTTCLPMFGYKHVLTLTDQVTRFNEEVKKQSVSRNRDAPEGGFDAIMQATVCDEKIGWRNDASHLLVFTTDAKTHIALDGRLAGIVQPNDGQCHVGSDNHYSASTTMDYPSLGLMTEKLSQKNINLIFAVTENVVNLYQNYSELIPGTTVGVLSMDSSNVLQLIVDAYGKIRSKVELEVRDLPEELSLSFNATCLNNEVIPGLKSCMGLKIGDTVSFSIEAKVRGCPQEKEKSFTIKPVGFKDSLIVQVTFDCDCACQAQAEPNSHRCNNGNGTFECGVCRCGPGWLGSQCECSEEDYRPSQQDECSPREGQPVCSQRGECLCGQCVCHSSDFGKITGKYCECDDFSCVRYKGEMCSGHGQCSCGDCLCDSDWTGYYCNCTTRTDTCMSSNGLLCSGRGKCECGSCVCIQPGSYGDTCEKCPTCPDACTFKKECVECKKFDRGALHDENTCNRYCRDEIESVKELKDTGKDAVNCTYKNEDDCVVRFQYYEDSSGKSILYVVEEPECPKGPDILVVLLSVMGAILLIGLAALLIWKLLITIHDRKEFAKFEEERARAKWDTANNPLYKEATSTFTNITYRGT

GRGESP [reference compound]
effect on α5β1-mediated cell attachment to fibronectin (α5β1 integrin [1]; B2/α27 cells, FIG. 5): no effect
effect on RRETAWA-displaying phage binding to α5β1 (α5β1 integrin [2]; RRETAWA-displaying phage, FIG. 4): no effect

RCD(ThioP)C
binding to α5β1 (α5β1): high affinity
binding to α4β1 (α4β1): high affinity

O=C(O)CN(CCN(CC(=O)O)CC(=O)O)CC(=O)O [EDTA, reference compound]
inhibition of B2/α27 attachment to immobilized RRETAWA-containing peptide (α5β1 integrin [3]; inhibitor at 10 mM): inhibited

CRGDGWC [A*CRGDGWC*G]
IC50 (α5β1 integrin [1]; B2/a27 cells (human α5, CHO β1), FIG. 11, read-out: IC50 of inhibition of attachment of B2/a27 cells to fibronectin): 6 µM
potency relative to *CRGDC* in B2/a27 attachment to fibronectin (α5β1 integrin [1]; B2/a27 cells, more potent than *CRGDC*): 7 fold
potency relative to *CRRETAWAC* in B2/a27 attachment to fibronectin (α5β1 integrin [1]; B2/a27 cells, more potent than *CRRETAWAC*): 7 fold
potency relative to *CRRETAWAC* in MG 63 cells (α5β1 integrin [1]; MG 63 cells, more potent than *CRRETAWAC*): 4 fold
IC50 (α5β1 integrin [1]; MG 63 cells, read-out: IC50 of inhibition of attachment of MG 63 cells to fibronectin): 10 µM
improvement in activity compared to linear GRGDSP (α5β1 integrin [1]; α5β1-mediated attachment to fibronectin): about 50 fold
activity in inhibiting binding of RGD-displaying phage to α5β1 relative to *CRGDC* (α5β1 integrin [2]; RGDGW phage, more active than *CRGDC*, FIG. 9): 5 fold
binding of peptide-displaying phage to the α5β1 integrin (α5β1 integrin [4]): among the best binders

GACRGDCLGA (disulfide 3-7 (inferred)) [reference compound]
inhibition of B2/α27 attachment to immobilized RRETAWA-containing peptide (α5β1 integrin [3]; inhibitor at 1 mM): inhibited
inhibition of binding of ELRGDGW-displaying phage to α5β1 integrin (α5β1 integrin [2]; ELRGDGW-displaying phage, CRRETAWAC compared with CRGDC, FIG. 2): approximately the same degree
inhibition of binding of CRGDCL-displaying phage to integrin-coated wells (αvβ3 integrin): completely inhibited

CRSETYWKC
binding of peptide-displaying phage to the α5β1 integrin (α5β1 integrin [4]): selectively bind
